Experiment [1] deals with MYC. As to the kind of experiment: qPCR gene expression in 22Rv1, MYC. Type of experiment: cell-based. The note with it: Homo sapiens, 22Rv1, 24 h. The procedure:
(§1) RNA was extracted using Qiacube RNAeasy Mini (Qiagen). For all genes tested, the qPCR reactions were carried out in triplicate with 250 ng RNA per reaction and Taqman® primer-probes. GAPDH was used as a housekeeping gene.

A further experiment relates to MDA-MB-453. As to the kind of experiment: 10-day CellTiter-Glo antiproliferative assay, MDA-MB-453. Format: cell-based. The note with it: Homo sapiens, MDA-MB-453, 240 h; 10-day exposure, CellTiter-Glo; AR High, ER −, Her2 +/−; read-out: IC50 (μM), MDA-MB-453. Here is the method:
(§2) Breast cell lines were cultured according to the distributor's recommendations. The following day, cells were exposed to compounds up to 10 days. Cell viability was assessed using a CellTiter-Glo® assay (Promega) at the end of the incubation period. The growth inhibitory effect was assessed by the concentration inhibiting growth by 50% using a nonlinear regression equation and a variable slope (Graphpad Prism). The mRNA expression levels for the androgen receptor (HUGO: AR) was determined from the DepMap Portal database (release 19Q2).

A further experiment has as its system MFM223. As to the kind of experiment: 10-day CellTiter-Glo antiproliferative assay, MFM223. The note with it: Homo sapiens, MFM-223, 240 h, 10-day exposure, AR Low, ER −, Her2 −. Format: cell-based. Here is the method: as §2
Experiment [2] relates to H3K27Ac. As to the kind of experiment: H3K27Ac western blot in MDA-MB-453 cells. Format: cell-based. Conditions: MDA-MB-453, 24 hrs, western blot. Here is the method: H3K27Ac is a specific mark of CBP/p300 activity and thus offers a means to directly assess the impact of CBP/p300 inhibition in cells.
MDA-MB-453 cells were plated overnight and exposed to the compounds for 24 hours. Lysates were prepared from the cells in E-PAGE loading buffer (Invitrogen) and analyzed by western blot with antibodies diluted 1:1000 for anti-H3K27Ac, 1:2000 for anti-total H3 and 1:10,000 for anti-β actin. The blots were scanned and analyzed on a LI-COR Odyssey image analyzer. H3K27Ac levels were normalized to β-Actin.
Finally, a washout experiments was carried out with compound 4 to assess the recovery of the biomarker after removal of the compound. […] Lysates were prepared and analyzed by western blot, as described above.

The subject of experiment [3] is panel of 10 BRD representing the various branches of the bromodomain tree. Briefly: AlphaScreen panel of 10 bromodomains. Format: binding.
The subject of the next experiment is HCC1187. As to the kind of experiment: 10-day CellTiter-Glo antiproliferative assay, HCC1187. Format: cell-based. The note with it: Homo sapiens, HCC1187, 240 h, 10-day exposure, AR High, ER −, Her2 −. Here is the method: as §2
Experiment [4] has as its system TMPRSS2. Briefly: Taqman gene expression in AR-positive breast cancer cells, TMPRSS2. Conditions: 24 hours, read-out: IC50, TMPRSS2 mRNA. Format: cell-based. Here is the method:
AR-positive breast cancer cells were exposed to increasing concentrations of compounds for 24 hours. RNA was extracted and gene expression measured using Taqman® assays for TMPRSS2 and XBP1.

The test system of experiment [5] is TMPRSS2. Briefly: qPCR gene expression in 22Rv1, TMPRSS2. Type of experiment: cell-based. Conditions: Homo sapiens, 22Rv1, 24 h. Here is the method:
as §1

Another experiment relates to CAL148. As to the kind of experiment: 10-day CellTiter-Glo antiproliferative assay, CAL148. Type of experiment: cell-based. Conditions: Homo sapiens, CAL-148, 240 h, 10-day exposure, AR Low, ER −, Her2 −. Here is the method: as §2
Experiment [6] relates to SORD. As to the kind of experiment: qPCR gene expression in 22Rv1, SORD. Type of experiment: cell-based. Conditions: Homo sapiens, 22Rv1, 24 h. Here is the method:
as §1

Experiment [7] concerns H3K27Ac. Briefly: H3K27Ac western blot in a prostate cancer cell line. Type of experiment: cell-based.
A further experiment concerns DU 145. Briefly: 10-day prostate cancer cell proliferation assay, DU 145. Format: cell-based. Conditions: Homo sapiens, DU-145, 240 h; 10 days exposure; AR negative. The procedure: Prostate cell lines were obtained from ATCC or DSMZ and cultured according to the distributor's recommendations. Prostate cancer cells were plated and incubated overnight. […] Cell viability was assessed using a CellTiter-Glo® assay (Promega) after 10 days drug exposure. The growth inhibitory effect was assessed by the concentration inhibiting growth by 50% using a nonlinear regression equation and a variable slope (Graphpad Prism).

Another experiment relates to KLK3. As to the kind of experiment: qPCR gene expression in AR-v7+ prostate cancer cells, KLK3. Conditions: 24 h. Type of experiment: cell-based. The procedure:
(§3) AR-v7+ prostate cancer cells were exposed to compounds 1, 2, 3, or 4 for 24 h. RNA was extracted and gene expression was measured by qPCR using Taqman® primer-probes. GAPDH was used as a housekeeping gene.

Experiment [8] concerns SORD. As to the kind of experiment: qPCR gene expression in VCaP, SORD. Format: cell-based. The note with it: Homo sapiens, 24 h. The procedure: as §1
In another experiment the test system is AR-v7. As to the kind of experiment: AR-v7 protein level by western blot in prostate cancer cells. Type of experiment: cell-based.
The subject of experiment [9] is TMPRSS2. Briefly: qPCR gene expression in AR-v7+ prostate cancer cells, TMPRSS2. Format: cell-based. Conditions: 24 h. Here is the method: as §3
In a further experiment the test system is FKBP5. As to the kind of experiment: qPCR gene expression in VCaP, FKBP5. Format: cell-based. Conditions: Homo sapiens, 24 h. The procedure: as §1
Experiment [10] deals with MYC. As to the kind of experiment: qPCR gene expression in AR-v7+ prostate cancer cells, MYC. Format: cell-based. The note with it: 24 h. Here is the method: as §3

Some results are limits rather than exact numbers.

Take `COC(=O)N1c2ccc3c(nc([C@H](O)c4cc(F)ccc4OC)n3[C@@H]3CCC[C@@H](C(=O)O)C3)c2CC[C@@H]1C` [Compound 1, (1R,3R)-3-[(7S)-2-[(R)-(5-fluoro-2-methoxyphenyl)(hydroxy)methyl]-6-(methoxycarbonyl)-7-methyl-3H,6H,7H,8H,9H-imidazo[4,5-f]quinolin-3-yl]cyclohexane-1-carboxylic acid]: the IC50 with MYC [1] is > 0.1 µM; in the experiment with MDA-MB-453, < 0.2 µM; in the experiment on MFM223, > 1 µM; in experiment [3] (read-out: IC50 in multiple assays of the panel of 10 bromodomains), > 10000 nM; in the experiment on HCC1187, 0.2 to 0.5 µM; with TMPRSS2 [4], < 100 nM. For the same molecule, the IC50 in the experiment on TMPRSS2 [5] was < 0.01 µM; in the experiment with CAL148, > 1 µM; with SORD [6], > 0.1 µM; in the experiment with DU 145, > 1000 nM; in the experiment with KLK3, 10 to 50 nM; in the experiment with SORD [8], > 0.1 µM. Further, the IC50 with TMPRSS2 [9] is < 10 nM; in the experiment with FKBP5, > 0.1 µM; in the experiment on MYC [10], > 100 nM. Further, the figures for the H3K27Ac level entry in the experiment on H3K27Ac [2] and with H3K27Ac [7] were “concentration dependent reduction” and “reduces H3K27Ac in a concentration-dependent manner”, respectively. Further, the “activity against panel of bromodomains” value in [3] is “inactive against 8”. For the same molecule, the “AR-v7 reduction maintained after removal of compound” value in the experiment with AR-v7 (22Rv1, after a 24 hr exposure) was 72 h. In the experiment with AR-v7 (androgen-independent (AR-v7+) prostate cancer cells, western blot), the AR-v7 protein level result is reported as “reduced”.

The values are drawn from US20240016795A1, “BROMODOMAIN INHIBITORS FOR ANDROGEN RECEPTOR-DRIVEN CANCERS” (FORMA Therapeutics, Inc., priority 2020, published 2024).
